Data from patent US20080145313A1, “Compositions and Methods for the Treatment and Prevention of Neoplastic Disorders” (Genesis Research & Development Corporation Limited, priority 2006, published 2008).
Marks after values point to notes of the source that are not given here.

How the values were obtained:
A549 cells = assay: Growth inhibition of siRNA-transfected A549 cells, SYBR Green I DNA content; type: cell-based, human; conditions: for Growth Inhibition in A549 cells by 10 nM siRNA: transporter gene targets; for growth inhibition, A549 cells: standardized against control siRNA
Procedure, shortened: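 A549 cells reverse-transfected with 10 nM Stealth siRNAs via Lipofectamine RNAiMAX, seeded at 5×10^3 cells/cm^2 in RPMI 1640/10% FCS; non-specific siRNA control. DNA content read 96 h post-transfection by SYBR Green I fluorescence (ex 485/em 535 nm) after freeze-thaw and Triton X-100 lysis; mean of three wells.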

HCT-116 p53 null cells = assay: Growth inhibition of siRNA-transfected p53 null HCT-116 cells, SYBR Green I DNA content; type: cell-based; conditions: for growth inhibition, HCT-116 −/−p53 cells: standardized against control siRNA
Experimental: (§1) A549 cells (human lung cancer cell line; ATCC No. CCL-185), SK-MeI-5 cells (human melanoma cell line; ATCC No. HTB-70), MCF-7 cells (human adenocarcinoma cell line; ATCC No. HTB-22), HCT-116 cells (colorectal carcinoma; ATCC CCL-247) and HCT-116 p53 null cells (derived from ATCC No. CCL-247; Bunz et al., Science 282:1497-1501, 1998) were cultured in RPMI 1640 medium with 10% v/v heat-inactivated fetal calf serum (FCS). Cells were seeded at a density of 5×10^4 cells/cm^2 in multi-well tissue culture plates. Sequences of Stealth™ siRNA duplexes (Invitrogen) targeting human ribonucleotide reductase subunit 1 (SEQ ID NO: 22) and subunit 2 (SEQ ID NO; 38) are given in SEQ ID NO: 4830-4832 (DNA), and SEQ ID NO: 5136-5138 (RNA) for RRM1, and SEQ ID NO: 5306-5308 (DNA), and SEQ ID NO: 5303-5305 (RNA) for RRM2. siRNAs were transfected at different concentrations into cells using Lipofectamine™ RNAiMAX transfection reagent (Invitrogen). Non-specific siRNA (SEQ ID NO: 4804 and 4805 (DNA), and SEQ ID NO: 5301 and 5302 (RNA)) were used as controls. The cellular DNA content was measured using a SYBR Green I-based fluorometric assay at 24, 48, 72 and 96 hours after transfection (120 hours for the MCF-7 cells), as follows. At the indicated time points following reverse transfection, cells were harvested and frozen at −80° C. overnight. Cells were thawed and cell lysis buffer (phosphate-buffered saline (PBS) containing 1% Triton X-100, pH 7) and SYBR Green I (1:10^5 V/V; Invitrogen) was added to the wells and incubated overnight in the dark at 4° C.
(§2) The following day, cell lysates were mixed thoroughly, and DNA fluorescence was measured with a Wallac Victor^2 plate reader (Turku, Finland) set at an excitation frequency of 485 nm and measuring emission at 535 nm.
(§3) To determine the effect of the p53-status of cells on RRM1 and RRM2 knockdown, growth inhibition of wild type (wt) HCT-116 and p53 null HCT-116 cells by RRM1 and RRM2-targeted siRNA were determined. Cells were reverse transfected with 1.0 and 10 nM RRM1-3 (SEQ ID NO: 4832 (DNA), and SEQ ID NO: 5138 (RNA)), 1.0 and 10 nM RRM2-2 (SEQ ID NO: 5307 (DNA), and SEQ ID NO: 5304 (RNA)) or 10 nM control siRNA (SEQ ID NO: 4804 (DNA), and SEQ ID NO: 5301 (RNA)), and growth measured daily for up to 4 days post transfection.
(§4) siRNA-mediated RNAi was also determined on a panel of different cell lines. A549, SK-MeI-5, wt HCT-116, HCT-116−/−p53 and MCF-7 cells were transfected with 10 nM siRNAs targeting YBX-1 and growth inhibition determined as described above. The YBX1 siRNAs are given in SEQ ID NO: 4981 to 4985 (DNA) and SEQ ID NO: 5276-5280 (RNA). A non-specific siRNA (SEQ ID NO: 4804 (DNA) and SEQ ID NO: 5301 (RNA)) was used as control. Growth inhibition by the siRNAs, given in Table 14, was standardized against the inhibition obtained with the control siRNA.

wt HCT-116 cells = assay: Growth inhibition of siRNA-transfected wt HCT-116 cells, SYBR Green I DNA content; type: cell-based; conditions: standardized against control siRNA
Experimental: as §1, §2, §3, §4
HCT-116 and A549 cells were transfected with 0.1, 1.0 and 10 nM siRNA targeting TYMS and DHFR (SEQ ID NO: 4833 to 4838 (DNA), and SEQ ID NO: 5139-5144 (RNA)) using Lipofectamine™ RNAiMAX and incubated for 96 h, in either normal fetal calf serum or serum dialyzed to remove low molecular weight molecules (cut-off 10 kDa). Growth of cells was measured by measuring the total DNA content per well using the SYBR Green assay as described above, and values are given as the percentage of the averaged control values. […] Inhibition increased with increasing siRNA concentration, which was not observed with a non-specific control siRNA. […]

[1] = 10 nM siRNA, DNA content 96 hours after transfection

With “SEQ ID NO: 4924: siRNA targeting SLC16A1 (MCT1) (chain 1 TTAGACTTATCTTTCCCTGCCTTGG; chain 2 UUAGACUUAUCUUUCCCUGCCUUGG; chemistry not given here; one strand in two spellings)” the “Growth Inhibition in A549 cells by 10 nM siRNA” value (A549 cells; [1]) was “++ (inhibits by at least 75%)”.

With “SEQ ID NO: 4932: siRNA targeting SLC29A1 (ENT1) (chain 1 TGATAAAGTAGCCGAAGGCACTTTC; chain 2 UGAUAAAGUAGCCGAAGGCACUUUC; chemistry not given here; one strand in two spellings)” the “Growth Inhibition in A549 cells by 10 nM siRNA” value (A549 cells; [1]) was “− (no growth inhibition)”.

For “SEQ ID NO: 4982: siRNA targeting YBX1 (chain 1 TTTGCTGGTAATTGCGTGGAGGACC; chain 2 UUUGCUGGUAAUUGCGUGGAGGACC; chemistry not given here; one strand in two spellings)”, the “growth inhibition, A549 cells” value (A549 cells; 10 nM siRNA) was “+++ (At least 70% inhibition)”, the “growth inhibition, HCT-116 −/−p53 cells” value (HCT-116 p53 null cells; 10 nM siRNA) was “+++ (At least 70% inhibition)” and the “growth inhibition, wt HCT-116 cells” value (wt HCT-116 cells; 10 nM siRNA) was “+++ (At least 70% inhibition)”.

For “SEQ ID NO: 4983: siRNA targeting YBX1 (chain 1 TACTGTGGTCGACGCCCATAGGGTC; chain 2 UACUGUGGUCGACGCCCAUAGGGUC; chemistry not given here; one strand in two spellings)”, the “growth inhibition, A549 cells” value (A549 cells; 10 nM siRNA) was “+ (At least 20% inhibition)”.

For “SEQ ID NO: 4984: siRNA targeting YBX1 (chain 1 CAAGGTAGACCAGTGAGGCAGAATA; chain 2 CAAGGUAGACCAGUGAGGCAGAAUA; chemistry not given here; one strand in two spellings)”, the “growth inhibition, A549 cells” value (A549 cells; 5 nM siRNA) was “++** (At least 50% inhibition)”, the “growth inhibition, HCT-116 −/−p53 cells” value (HCT-116 p53 null cells; 1 nM siRNA) was “+* (At least 20% inhibition)” and the “growth inhibition, wt HCT-116 cells” value (wt HCT-116 cells; 1 nM siRNA) was “+* (At least 20% inhibition)”.

For “SEQ ID NO: 4985: siRNA targeting YBX1 (chain 1 CAGCCTAGAGAGGACGGCAATGAAG; chain 2 CAGCCUAGAGAGGACGGCAAUGAAG; chemistry not given here; one strand in two spellings)”, the “growth inhibition, A549 cells” value (A549 cells; 5 nM siRNA) was “+** (At least 20% inhibition)”, the “growth inhibition, HCT-116 −/−p53 cells” value (HCT-116 p53 null cells; 1 nM siRNA) was “−* (No inhibition)” and the “growth inhibition, wt HCT-116 cells” value (wt HCT-116 cells; 1 nM siRNA) was “−* (No inhibition)”.

With “SEQ ID NO: 5307: Stealth siRNA targeting RRM2 (chain 1 AATTCATCCCAATGAGCTTCACAGG; chain 2 AAUUCAUCCCAAUGAGCUUCACAGG; Stealth siRNA, chemical pattern not given here; one strand in two spellings)” the “Growth Inhibition in A549 cells” value (A549 cells; [1]) was “++ (inhibits by at least 75%)” and the “growth inhibition, p53 null HCT-116” value (HCT-116 p53 null cells; 1.0 and 10 nM siRNA, up to 4 days, compared with p53 wt) was “more growth inhibitory”.
